These results are taken from patent US20060004428A1, “Pyrrolo (3,4-c) carbazole and pyrido (2,3-b) pyrrolo (3,4-e) indole derivatives, preparation method and pharmaceutical compositions containing same” (priority 2002, published 2006).

As usually defined, the melting point is the temperature, or range, at which the solid turns liquid.

Each structure is given as a SMILES string.

One series concerns L1210 murine leukaemia. As to the kind of experiment: In vitro cytotoxicity, Microculture Tetrazolium Assay, L1210. Format: cell-based. The conditions noted are these: Mus musculus, exposure 4 doubling periods, or 48 hours, read-out: IC50, the concentration of cytotoxic agent which inhibits the proliferation of the treated cells by 50%. Here is the method: (§1) Four cell lines were used: • L1210 murine leukaemia • A549 human non-small-cell lung carcinoma • HT29 human colon carcinoma • DU145 prostate carcinoma
(§2) L1210 murine leukaemia was used in vitro. The cells are cultured in RPMI 1640 complete culture medium containing 10% foetal calf serum, 2 mM glutamine, 50 units/ml of penicillin, 50 μg/ml of streptomycin and 10 mM Hepes, pH: 7.4. The cells are distributed on microplates and are exposed to the cytotoxic compounds for 4 doubling periods, or 48 hours. The number of viable cells is then quantified by a calorimetric assay, the Microculture Tetrazolium Assay (J. Carmichael et al., Cancer Res.; 47, 936-942 (1987)). The results are expressed as the IC50, the concentration of cytotoxic agent which inhibits the proliferation of the treated cells by 50%.

Series [1] concerns A549 human non-small-cell lung carcinoma. The series can be described thus: In vitro cytotoxicity, Microculture Tetrazolium Assay, A549. Type of series: cell-based. As to conditions: read-out: IC50, the concentration of cytotoxic agent which inhibits the proliferation of the treated cells by 50%. Here is the method: as §1, §2
Series [2] has as its system HT29 human colon carcinoma. As to the kind of experiment: In vitro cytotoxicity, Microculture Tetrazolium Assay, HT29. Type of series: cell-based. As to conditions: HT-29, read-out: IC50, the concentration of cytotoxic agent which inhibits the proliferation of the treated cells by 50%. Here is the method:
as §1, §2

The subject of another series is DU145 prostate carcinoma. The series can be described thus: In vitro cytotoxicity, Microculture Tetrazolium Assay, DU145. Type of series: cell-based. The conditions noted are these: Homo sapiens, DU-145, read-out: IC50, the concentration of cytotoxic agent which inhibits the proliferation of the treated cells by 50%. Here is the method:
as §1, §2

`O=C1NC(=O)c2c1c1c3ccccc3[nH]c1c1cccn21` [Example 1, Pyrrolo[3′,4′:5,6]indolizino[8,7-b]indole-1,3(2H,8H)dione] had a melting point of 218 to 220 °C. Further, the IC50 in the series with L1210 murine leukaemia was 3.1 µM. In addition, the IC50 in series [1] is 1.99 µM. In addition, the IC50 in series [2] was 3.3 µM. In the series with DU145 prostate carcinoma, the IC50 amounted to 1.4 µM. `CN1C(=O)c2c(n3cccc3c3[nH]c4ccccc4c23)C1=O` [Example 2, 2-Methylpyrrolo[3′,4′:5,6]indolizino[8,7-b]indole-1,3(2H,8H)dione] had a melting point of 226 to 228 °C. For the compound `O=C1NC(=O)c2c1c1c3cc(OCc4ccccc4)ccc3[nH]c1c1cccn21` [Example 3, 11-(Benzyloxy)pyrrolo[3′,4′:5,6]indolizino[8,7-b]indole-1,3(2H,8H)-dione], the melting point stood at 275 °C. The same measure, in the same setting: as for `O=C1NC(=O)c2c1c1c3cc(Br)ccc3[nH]c1c1cccn21` [Example 7, 11-Bromopyrrolo[3′,4′:5,6]indolizino[8,7-b]indole-1,3(2H,8H)-dione], the figure is over 300 °C; as for `CN1C(=O)c2c(n3cccc3c3[nH]c4ccc(Br)cc4c23)C1=O` [Example 8, 11-Bromo-2-methylpyrrolo[3′,4′:5,6]indolizino[8,7-b]indole-1,3(2H,8H)-dione], over 300 °C. Turning to `O=C1NC(=O)c2c1c1c3cc(Cl)ccc3[nH]c1c1cccn21` [Example 9, 11-Chloropyrrolo[3′,4′:5,6]indolizino[8,7-b]indole-1,3(2H,8H)-dione], the melting point lay in the range of 298 to 304 °C.

The compound `CN1C(=O)c2c(n3cncc3c3[nH]c4ncccc4c23)C1=O` [Example 18, 2-Methylimidazo[1,5-a]pyrido[3′,2′:4,5]pyrrolo[2,3-c]pyrrolo[3,4-e]-Pyridine-1,3(2H,8H)-dione] registered a melting point of 304 to 307 °C.

`CN1C(=O)C2c3c([nH]c4ncccc34)-c3nccn3C2C1=O` (stereo not shown) [Example 19, 6-Methyl-7a,12-dihydroimidazo[1,2-a]pyrido[3′,2′:4,5]pyrrolo[2,3-c]-pyrrolo[3,4-e]pyridine-5,7(4aH,6H)-dione]: the melting point is 222 to 224 °C. In turn, `CC(=O)OC[C@H]1O[C@@H](n2c3ncccc3c3c4c(n5cncc5c32)C(=O)N(C)C4=O)[C@H](OC(C)=O)[C@@H](OC(C)=O)[C@@H]1OC(C)=O` [Example 21, 2-Methyl-8-(2,3,4,6-tetra-O-acetyl-β-D-glucopyranosyl)-imidazo-[1,5-a]pyrido[3′,2′:4,5]pyrrolo[2,3-c]pyrrolo[3,4-e]pyridine-1,3(2H,8H)-dione] yielded a melting point of 204 °C.
